According to article PMC2410273, “Pharmacokinetic behaviour of the chemoprotectants BNP7787 and mesna after an i.v. bolus injection in rats” (British Journal of Cancer, 2004):
Read-outs that look alike come from different tables or passages of the source.

Columns and labels:
[1] = tested on: cisplatin-induced nephrotoxicity; set-up: method as in Hausheer et al, 1998; conditions: dogs; plasma creatinine, BUN, renal histopathology; ref Hausheer et al, 1998; cited from earlier work
[2] = set-up: method as in Hausheer et al, 1998; conditions: rats, ref Hausheer et al, 1998; cited from earlier work
[3] = tested on: antitumour activity of cisplatin; set-up: method as in Hausheer et al, 1998; conditions: tumour-bearing rats; given preceding cisplatin; ref Hausheer et al, 1998; cited from earlier work
[4] = set-up: method as in Verschraagen et al, in press; conditions: cancer patients, ref Verschraagen et al, in press, cited from earlier work
[5] = set-up: method as in Ormstad et al, 1983; conditions: in vitro, ref Ormstad et al, 1983, cited from earlier work
[6] = Pharmacokinetics and tissue distribution of BNP7787 and mesna after i.v. bolus of BNP7787 or mesna in WARD tumour-bearing rats; assay type: in vivo, Fischer rats; conditions: for AUC^5−60 in plasma, fold higher in rats than in nude mice: after equivalent dose of 1000 mg kg^−1 BNP7787, mouse data ref Boven et al, 2002; for AUC, fold lower than the corresponding value in kidney: all other sampled tissue compartments, after either BNP7787 or mesna; for Kp: 1000 mg/kg
Description: The protocol was approved by the ethics committee for animal experiments of the Vrije Universiteit medical center in Amsterdam, The Netherlands. This committee strictly adheres to the standards required by the UKCCCR for the welfare of animals in neoplasia ([Workman et al, 1998]). Female Fischer rats (144–171 g) were obtained from Harlan (Indianapolis, USA) and were implanted subcutaneously in both flanks with fragments (2–3 mm diameter) of the WARD colorectal tumour ([Cao et al, 1994]). The pharmacokinetic study started at the time the tumours had reached a mean size of approximately 600 mm^3 (range 250–900 mm^3).
Tumour-bearing rats were treated with 1000 mg kg^−1 BNP7787 i.v. or 1000 mg kg^−1 mesna i.v. injected in the tail vein. Approximately 5 min before sample collection, the rats were anaesthetised by i.p. injection with 0.1 ml of a mixture of 75 mg ml^−1 ketamine plus 5 mg ml^−1 xylazine per 100 g weight. Blood was obtained by heart puncture at 0, 5, 15, 30, 45, 60, 90 and 150 min after i.v. administration of BNP7787 or mesna. Thereafter, the kidney, liver and tumour were removed by surgical dissection. In addition, at time points 0 and 30 min, skeletal muscle attached to the thighbone was also collected. At each time point three rats were killed.
Immediately after collection, the blood samples, which were collected in cooled EDTA-containing tubes (potassium-EDTA 1.6 mg EDTA ml^−1 blood; Sarstedt, Germany), were centrifuged at 4°C for 10 min at 4000 g. Plasma was separated and immediately deproteinised by adding one volume of sulphuric acid (0.33 M) and one volume of sodium hexametaphosphate (5 g/100 ml). After vortexing and centrifugation for 2 min at 12 000 g, the supernatant was stored in aliquots at −80°C until analysis. One volume of RBCs was washed with 1 volume of cold phosphate-buffered saline (PBS) of pH 7.4 containing sodium phosphate (10 mM) and NaCl (140 mM; Hospital Pharmacy, VUmc, Amsterdam, The Netherlands). This mixture was centrifuged for 2 min, 12 000 g at 4°C. After removing the PBS, the remaining RBCs were stored in liquid nitrogen until further processing.
The kidney, liver, tumour and skeletal muscle were washed with cold PBS before storage in liquid nitrogen. After collection of all the samples at the different time points, tissue homogenates of kidney, liver, tumour and skeletal muscle were prepared by pulverisation using a Braun Micro-dismembrator (Salm and Kipp; Breukelen, The Netherlands) according to the method described by [Peters et al (1986)]. An appropriate volume of aqueous EDTA (1 g l^−1) was added to the RBC and tissue homogenates to obtain a concentration of 100 mg tissue (wet weight) per ml. After sonification (10 min) and vortexing (10 min), the samples were subsequently deproteinised by adding 1 volume of cold sulphuric acid (0.33 M) and 1 volume of cold sodium hexametaphosphate (5 g/100 ml). After thorough vortexing and centrifugation (2 min at 8500 g at 4°C), the supernatants were stored in aliquots at −80° until analysis.
BNP7787 and mesna concentrations were determined selectively in one run using micro-HPLC with a dual electrochemical detector (dual ECD) ([Verschraagen et al, 2003b]). Briefly, citrate-NaOH buffer (40 μl of a mixture of 1 ml 5.0 M sodium hydroxide and 4 ml 0.5 M tri-sodium citrate buffer, pH 3.0) was added to 200 μl of deproteinised plasma, RBC or tissue sample, and the sample was injected into the micro-HPLC system which consisted of a Phenomenex C18 guard column (10 μm, 4 × 2.0 mm) and a Phenomenex Prodigy C18 ODS-3 column (5 μm, 100 × 1.0 mm; Bester, Amstelveen, The Netherlands).

[7] = tested on: intestinal and renal epithelial cells; set-up: method as in earlier work; conditions: isolated cells, via facilitated transport, ref Ormstad and Uehara, 1982, Ormstad et al, 1983, Brock et al, 1984, Ormstad and Ohno; cited from earlier work
[8] = tested on: antitumour activity of cisplatin; set-up: method as in Boven et al, 2002; conditions: tumour-bearing nude mice; given preceding cisplatin; ref Boven et al, 2002; cited from earlier work
[9] = tested on: cisplatin-induced toxicity; set-up: method as in Boven et al, 2002; conditions: nude mice; in the presence of 1000 mg kg^−1 BNP7787; ref Boven et al, 2002; cited from earlier work
[10] = set-up: method as in Hausheer et al, 1998; conditions: dogs, ref Hausheer et al, 1998; cited from earlier work
[11] = tested on: cisplatin-induced nephrotoxicity; set-up: method as in Hausheer et al, 1998; conditions: rats, ref Hausheer et al, 1998, cited from earlier work
[12] = set-up: method as in Boven et al, 2002; conditions: nude mice; after BNP7787 administration; ref Boven et al, 2002; cited from earlier work
[13] = 30 min after 1000 mg kg^−1 BNP7787 i.v.
[14] = 30 min after 1000 mg kg^−1 mesna i.v.
[15] = RBC, each 1000 mg kg^−1 i.v., P<0.01
[16] = after 1000 mg kg^−1 BNP7787 i.v., RBC
[17] = after 1000 mg kg^−1 BNP7787 i.v., kidney
[18] = after 1000 mg kg^−1 BNP7787 i.v., liver
[19] = after 1000 mg kg^−1 BNP7787 i.v., plasma
[20] = after 1000 mg kg^−1 BNP7787 i.v., tumour
[21] = after 1000 mg kg^−1 mesna i.v., kidney
[22] = after 1000 mg kg^−1 mesna i.v., plasma
[23] = after 1000 mg kg^−1 mesna i.v., tumour
[24] = female, Fischer, rat, all tissue compartments other than kidney / plasma, iv, after 1000 mg kg^−1 mesna i.v., all tissue compartments other than kidney, read-out: tissue–plasma AUC ratio
[25] = female, Fischer, rat, kidney / plasma, iv, after 1000 mg kg^−1 BNP7787 i.v., read-out: kidney–plasma AUC ratio
[26] = female, Fischer, rat, kidney / plasma, iv, after 1000 mg kg^−1 mesna i.v., read-out: kidney–plasma AUC ratio
[27] = female, Fischer, rat, liver / plasma, iv, after 1000 mg kg^−1 BNP7787 i.v., read-out: liver–plasma AUC ratio
[28] = female, Fischer, rat, red blood cells / plasma, iv, after 1000 mg kg^−1 BNP7787 i.v., read-out: RBC–plasma AUC ratio
[29] = female, Fischer, rat, tumour / plasma, iv, after 1000 mg kg^−1 BNP7787 i.v., read-out: tumour–plasma AUC ratio
[30] = plasma, each 1000 mg kg^−1 i.v., P<0.01

O=S(=O)([O-])CCSSCCS(=O)(=O)[O-].[Na+].[Na+] [BNP7787, disodium 2,2′-dithio-bis-ethane sulphonate]
protection against cisplatin-induced nephrotoxicity [1]: completely protected | nontoxic dose after i.v. administration [2]: 4000 mg/kg | effect on antitumour activity of cisplatin [3]: did not reduce the antitumour activity of cisplatin | pharmacokinetic interaction with intact cisplatin ([4]; BNP7787 18.4–41 g m^−2): no mutual pharmacokinetic interaction | relatively nontoxic dose ([4]; phase I, BNP7787 preceding cisplatin): ≤ 41 g m^−2 | reduction of BNP7787 into mesna ([5]; cytosol fraction of the kidney cortex): large reduction | reduction of BNP7787 into mesna ([5]; plasma): very limited | mean concentration (±s.d.) in skeletal muscle [6, 13]: 36.9 ± 26.0 nmol/g | mean concentration (±s.d.) in skeletal muscle [6, 14]: 30.3 ± 17.6 nmol/g | AUC (printed: concentration) after BNP7787 administration compared with after mesna administration [6, 15]: six-fold lower | AUC of BNP7787, fold lower than AUC of mesna [6, 16]: 11.4 fold | time detectable [6, 16]: 30 min | time of highest concentrations / peak levels ([6]; after 1000 mg kg^−1 BNP7787 i.v., all compartments): 5 min | AUC of BNP7787, fold lower than AUC of mesna [6, 17]: 2.7 fold | time detectable [6, 17]: 90 min | AUC of BNP7787, fold lower than AUC of mesna [6, 18]: 39.8 fold | time detectable [6, 18]: 30 min | AUC of BNP7787 relative to AUC of mesna [6, 19]: almost two-fold higher | time detectable [6, 19]: 90 min | AUC of BNP7787, fold lower than AUC of mesna [6, 20]: 5.1 fold | time detectable [6, 20]: 45 min | time detectable [6, 21]: at least 150 min | time detectable [6, 22]: at least 150 min | time detectable [6, 23]: at least 150 min | AUC^5−60 in plasma, fold higher in rats than in nude mice [6]: 2.7 fold | AUC, fold lower than the corresponding value in kidney [6]: at least 5.5 fold | Kp [6, 24]: < 0.3 | Kp [6, 25]: 0.9 | Kp [6, 26]: 2.1 | Kp [6, 27]: 0.01 | Kp [6, 28]: 0.01 | Kp [6, 29]: 0.08 | AUC after BNP7787 administration compared with after mesna administration ([6]; kidney, each 1000 mg kg^−1 i.v.): smaller, but not significant difference | AUC after BNP7787 administration compared with after mesna administration ([6]; liver, each 1000 mg kg^−1 i.v.): not significantly different | AUC after BNP7787 administration compared with after mesna administration [6, 30]: more than three-fold higher | AUC after BNP7787 administration compared with after mesna administration ([6]; tumour, each 1000 mg kg^−1 i.v.): not significantly different | cellular uptake [7]: preferentially taken up in intestinal and renal epithelial cells | effect on antitumour activity of cisplatin [8]: did not reduce the antitumour activity of cisplatin | weight loss on cisplatin dose increase from 5 to 8 mg kg^−1 [9]: weight loss increased | nontoxic dose after i.v. administration [10]: 2000 mg/kg | cisplatin dose (mg kg^−1) tolerated when preceded by BNP7787 ([11]; 750 or 1500 mg kg^−1 BNP7787 i.v.): could be safely increased from 6 to 9 | protection against cisplatin-induced nephrotoxicity ([11]; plasma creatinine, BUN, renal histopathology): completely protected

O=S(=O)(O)CCS [mesna, sodium 2-mercapto ethane sulphonate]
effect on antitumour activity of cisplatin [3]: can reduce the number of complete and partial tumour remissions | AUC of mesna in plasma as % of the AUC of BNP7787 [12]: approximately 24% | mean concentration (±s.d.) in skeletal muscle [6, 13]: 355.1 ± 113.0 nmol/g | mean concentration (±s.d.) in skeletal muscle [6, 14]: 665.1 ± 209.1 nmol/g | AUC, fold lower after BNP7787 than after mesna administration [6, 15]: 6.2 fold | time detectable [6, 16]: up to 90 min | time detectable [6, 17]: at least 150 min | time detectable [6, 18]: up to 90 min | time detectable [6, 19]: up to 90 min | time detectable [6, 20]: at least 150 min | time detectable ([6]; after 1000 mg kg^−1 mesna i.v., RBC): at least 150 min | time detectable [6, 21]: at least 150 min | time detectable ([6]; after 1000 mg kg^−1 mesna i.v., liver): at least 150 min | time detectable [6, 22]: at least 150 min | AUC of mesna relative to AUC of BNP7787 ([6]; after 1000 mg kg^−1 mesna i.v., plasma and all tissues sampled): at least seven-fold higher | time detectable [6, 23]: at least 150 min | AUC^5−60 in plasma, fold higher in rats than in nude mice [6]: approximately 5.2 fold | AUC of mesna in tumour relative to AUC of mesna in plasma ([6]; after mesna administration): at least three-fold lower | AUC, fold lower than the corresponding value in kidney [6]: at least 5.5 fold | Kp [6, 24]: < 0.3 | Tmax ([6]; female, Fischer, rat, iv, after 1000 mg kg^−1 BNP7787 i.v., liver, read-out: time of maximal concentration in liver (converted)): 5 min | Kp [6, 25]: 4.5 | Kp [6, 26]: 1.7 | Kp [6, 27]: 0.5 | Kp [6, 28]: 0.1 | Kp [6, 29]: 0.7 | AUC, fold lower after BNP7787 than after mesna administration ([6]; kidney, each 1000 mg kg^−1 i.v., P<0.01): 1.9 fold | AUC after BNP7787 administration compared with after mesna administration ([6]; liver, each 1000 mg kg^−1 i.v.): similar | AUC after BNP7787 administration compared with after mesna administration [6, 30]: five-fold lower | AUC of mesna in plasma as % of the AUC of BNP7787 ([6]; rats, after BNP7787 administration): approximately 50% | AUC, fold lower after BNP7787 than after mesna administration ([6]; tumour, each 1000 mg kg^−1 i.v., not statistically significant): 2.1 fold | effect on antitumour activity of cisplatin [8]: reduce the specific growth delay
